According to patent US20090215812A1, “BIOMARKERS FOR EVALUATING LIKELIHOOD OF TUMOR SENSITIVITY TO AN MTOR INHIBITOR” (ARIAD GENE THERAPEUTICS, INC., priority 2005, published 2009):

Columns and labels:
sarcoma = assay: ongoing clinical trial of AP23573 in sarcoma; assay type: in vivo, human; conditions: number of patients
Excerpt: The experiment is repeated several times using either mixed sets of samples that included samples from tumors of various types or using sets of samples from a single tumor type (prostate cancer, leiomyosarcoma, osteosarcoma). Some of the samples are obtained from an ongoing clinical trial of AP23573 in sarcoma, results of which are presented below: […]

[1] = test system: 14 human tumor-derived cell lines; assay: in vitro proliferation assays on panel of tumor cell lines; assay type: cell-based
Protocol: (§1) A series of in vitro proliferation assays were performed on 14 human tumor-derived cell lines exposed to AP23573 at concentrations ranging from 0.01 nM to […]. Cells were plated into 96-well plates (between 750 and 5000 cells per well as per the table below), in cell culture medium containing serial dilutions of AP23573, or in the absence of AP23573 as a control, and were then incubated for 3 days.
(§2) At the end of the incubation, the number of cells in each well (cell viability) was determined using a CellTiter 96® Aqueous One Solution Cell Proliferation metabolic activity assay kit (Promega). This assay is based on the use of a reagent that monitors the total reducing environment of a population of cells. The quantity of reduced products, which is determined spectrophotometrically, is directly proportional to the number of viable cells in the culture. The percentage of cells remaining after treatment with each concentration of AP23573 was then determined relative to the number of cells remaining in the untreated wells.
For each cell line the percentage cells remaining after treatment with AP23573 reached a plateau between 1 and 10 nM. Thus the inhibitory effect of AP23573 on cell proliferation was calculated by taking the average of the percentage of cells remaining at the 10, 33 and 100 nM concentration levels. […]

MDA-435S = assay: in vitro proliferation assay (CellTiter 96 Aqueous One Solution); assay type: cell-based, human; conditions: average of 10, 33 and 100 nM, 3 days incubation, relative to untreated wells
Protocol: as §1, §2
(§3) For each cell line the percentage cells remaining after treatment with AP23573 reached a plateau between 1 and 10 nM. Thus the inhibitory effect of AP23573 on cell proliferation was calculated by taking the average of the percentage of cells remaining at the 10, 33 and 100 nM concentration levels. A lower percentage of cells remaining reflects a larger inhibitory effect of AP23573. The experiment was performed two or three times for each cell line and the results averaged.

AN3CA = assay: as above; assay type: cell-based, human; conditions: average of 10, 33 and 100 nM, 3 days incubation, relative to untreated wells
Protocol: as §1, §2, §3

MCF7 = assay: as above; assay type: cell-based, human; conditions: average of 10, 33 and 100 nM, 3 days incubation, relative to untreated wells
Protocol: as §1, §2, §3

HEC1A = assay: as above; assay type: cell-based, human; conditions: average of 10, 33 and 100 nM, 3 days incubation, relative to untreated wells
Protocol: as §1, §2, §3

HT1080 = assay: as above; assay type: cell-based, human
Protocol: as §1, §2, §3

ES2 = assay: as above; assay type: cell-based, human; conditions: average of 10, 33 and 100 nM, 3 days incubation, relative to untreated wells
Protocol: as §1, §2, §3

SKBR3 = assay: as above; assay type: cell-based, human; conditions: average of 10, 33 and 100 nM, 3 days incubation, relative to untreated wells
Protocol: as §1, §2, §3

SKOV3 = assay: as above; assay type: cell-based, human; conditions: average of 10, 33 and 100 nM, 3 days incubation, relative to untreated wells
Protocol: as §1, §2, §3

DU145 = assay: as above; assay type: cell-based, human; conditions: average of 10, 33 and 100 nM, 3 days incubation, relative to untreated wells
Protocol: as §1, §2, §3

MDA-453 = assay: as above; assay type: cell-based, human; conditions: average of 10, 33 and 100 nM, 3 days incubation, relative to untreated wells
Protocol: as §1, §2, §3

HCT116 = assay: as above; assay type: cell-based, human
Protocol: as §1, §2, §3

PC3 = assay: as above; assay type: cell-based, human; conditions: average of 10, 33 and 100 nM, 3 days incubation, relative to untreated wells
Protocol: as §1, §2, §3

BT474 = assay: as above; assay type: cell-based, human; conditions: average of 10, 33 and 100 nM, 3 days incubation, relative to untreated wells
Protocol: as §1, §2, §3

MDA-468 = assay: as above; assay type: cell-based, human; conditions: average of 10, 33 and 100 nM, 3 days incubation, relative to untreated wells
Protocol: as §1, §2, §3

[2] = average of 10, 33 and 100 nM, 3 days incubation, relative to untreated wells

With `CO[C@H]1C[C@@H]2CC[C@@H](C)[C@@](O)(O2)C(=O)C(=O)N2CCCC[C@H]2C(=O)O[C@H]([C@H](C)C[C@@H]2CC[C@@H](OP(C)(C)=O)[C@H](OC)C2)CC(=O)[C@H](C)/C=C(\C)[C@@H](O)[C@@H](OC)C(=O)[C@H](C)C[C@H](C)/C=C/C=C/C=C/1C` [AP23573] as the molecule, how does the “CR/PR (complete response / partial response)” value (sarcoma; Bone Cohort (19)) read?
Its value is 3.

What about the “PD (progressive disease)” value (sarcoma; Bone Cohort (19)) of the same molecule?
The value was 5.

What about the “CR/PR (complete response / partial response)” value (sarcoma; Leiomyosarcoma (18)) of the same molecule?
The value was 0.

And the “PD (progressive disease)” value (sarcoma; Leiomyosarcoma (18))?
The value was 6.

And the “CR/PR (complete response / partial response)” value (sarcoma; Liposarcoma (13))?
Its value is 0.

What about the “PD (progressive disease)” value (sarcoma; Liposarcoma (13)) of the same molecule?
The value was 5.

And the “CR/PR (complete response / partial response)” value (sarcoma; Other Sarcoma (20))?
Its value is 0.

And the “PD (progressive disease)” value (sarcoma; Other Sarcoma (20))?
Its value is 7.

And the “sensitivity to AP23573” value ([1]; HEC1A, BT474, MDA468, DU145, HCT116 (lower FKBP12 expression))?
Its value is “lower levels of sensitivity”.

What about the “sensitivity to AP23573” value ([1]; HT1080, PC3, ES2, SKBR3 (relatively high FKBP12 expression)) of the same molecule?
The value was “relatively high levels of sensitivity”.

What about the “Percent Cells Remaining” value (MDA-435S) of the same molecule?
The value was 68%.

What about the “Percent Cells Remaining” value (AN3CA) of the same molecule?
Its value is 45%.

What about the “Percent Cells Remaining” value (MCF7) of the same molecule?
The value was 55%.

And the “Percent Cells Remaining” value (HEC1A)?
Its value is 70%.

What about the “Percent Cells Remaining” value (HT1080; [2]) of the same molecule?
Its value is 37%.

And the “sensitivity to AP23573” value (HT1080; high FKBP12 expression level)?
The value was “relatively sensitive”.

And the “Percent Cells Remaining” value (ES2)?
Its value is 63%.

And the “Percent Cells Remaining” value (SKBR3)?
Its value is 55%.

What about the “Percent Cells Remaining” value (SKOV3) of the same molecule?
Its value is 61%.

And the “Percent Cells Remaining” value (DU145)?
The value was 81%.

And the “Percent Cells Remaining” value (MDA-453)?
Its value is 58%.

And the “Percent Cells Remaining” value (HCT116; [2])?
The value was 94%.

And the “sensitivity to AP23573” value (HCT116; low FKBP12 expression level)?
The value was “relatively resistant”.

And the “Percent Cells Remaining” value (PC3)?
Its value is 51%.

And the “Percent Cells Remaining” value (BT474)?
Its value is 80%.

What about the “Percent Cells Remaining” value (MDA-468) of the same molecule?
Its value is 77%.
